System: MV-4-11 cells
Assay: Gene expression microarray analysis (Affymetrix PrimeView) and GSEA
Type: cell-based, human
Design: RFU PODN (11730768_x_at) / Fold change /veh PODN (11730768_x_at) / RFU LINC00158 (11744669_a_at) / Fold change /veh LINC00158 (11744669_a_at) / RFU DUSP10 (11751237_a_at) / Fold change /veh DUSP10 (11751237_a_at) / RFU ID3 (11757404_x_at) / Fold change /veh ID3 (11757404_x_at) / RFU PLEKHG5 (11737974_s_at) / Fold change /veh PLEKHG5 (11737974_s_at) / RFU LRRC4B (11730491_at) / Fold change /veh LRRC4B (11730491_at) / RFU GIMAP4 (11747438_a_at) / Fold change /veh GIMAP4 (11747438_a_at) / RFU KRT8 (11758183_x_at) / Fold change /veh KRT8 (11758183_x_at) / RFU CNN1 (11734310_a_at) / Fold change /veh CNN1 (11734310_a_at) / RFU VPS37D (11726825_at) / Fold change /veh VPS37D (11726825_at) / RFU C10orf10 (11716522_x_at) / Fold change /veh C10orf10 (11716522_x_at) / RFU KIR2DL2 /// KIR2DL4 /// KIR2DL5A /// KIR2DL5B /// KIR2DS1 /// KIR2DS2 /// KIR2DS3 /// KIR2DS4 /// KIR3DL3 /// KIR3DL3 /// KIR3DS1 (11738374_at) / Fold change /veh KIR2DL2 /// KIR2DL4 /// KIR2DL5A /// KIR2DL5B /// KIR2DS1 /// KIR2DS2 /// KIR2DS3 /// KIR2DS4 /// KIR3DL3 /// KIR3DL3 /// KIR3DS1 (11738374_at) / RFU C1QL1 (11718748_at) / Fold change /veh C1QL1 (11718748_at) / RFU TMPRSS4 (11747572_a_at) / Fold change /veh TMPRSS4 (11747572_a_at) / RFU HAMP (11756126_x_at) / Fold change /veh HAMP (11756126_x_at) / RFU RNFT2 (11725882_a_at) / Fold change /veh RNFT2 (11725882_a_at) / RFU NR4A2 (11747474_a_at) / Fold change /veh NR4A2 (11747474_a_at) / RFU ABCC12 (11746883_a_at) / Fold change /veh ABCC12 (11746883_a_at) / RFU TMEM136 (11760407_x_at) / Fold change /veh TMEM136 (11760407_x_at) / RFU CLDN22 /// WWC2 (11732394_at) / Fold change /veh CLDN22 /// WWC2 (11732394_at) / RFU HLA-DPB1 (11760878_x_at) / Fold change /veh HLA-DPB1 (11760878_x_at) / RFU SPINT1 (11716480_a_at) / Fold change /veh SPINT1 (11716480_a_at) / RFU GAP43 (11754022_s_at) / Fold change /veh GAP43 (11754022_s_at) / RFU A4GNT (11735810_at) / Fold change /veh A4GNT (11735810_at) / RFU PRB3 (11715151_x_at) / Fold change /veh PRB3 (11715151_x_at) / RFU TUBB4B (11761932_at) / Fold change /veh TUBB4B (11761932_at) / RFU CAPN14 (11732068_a_at) / Fold change /veh CAPN14 (11732068_a_at) / RFU TMCC2 (11721928_a_at) / Fold change /veh TMCC2 (11721928_a_at) / RFU IRGQ (11745062_a_at) / Fold change /veh IRGQ (11745062_a_at) / RFU FAM174B (11720279_a_at) / Fold change /veh FAM174B (11720279_a_at) / RFU TMPRSS4 (11748680_a_at) / Fold change /veh TMPRSS4 (11748680_a_at) / RFU FAM212B (11763350_a_at) / Fold change /veh FAM212B (11763350_a_at) / RFU PLEKHG5 (11743358_a_at) / Fold change /veh PLEKHG5 (11743358_a_at) / RFU ZSCAN30 (11745921_a_at) / Fold change /veh ZSCAN30 (11745921_a_at) / RFU CMKLR1 (11741424_a_at) / Fold change /veh CMKLR1 (11741424_a_at) / RFU LOC101060620 /// MAPK8IP1 (11723275_at) / Fold change /veh LOC101060620 /// MAPK8IP1 (11723275_at) / RFU SPTSSB (11747773_x_at) / Fold change /veh SPTSSB (11747773_x_at) / RFU PRSS12 (11739890_at) / Fold change /veh PRSS12 (11739890_at) / RFU BIN1 (11741810_x_at) / Fold change /veh BIN1 (11741810_x_at) / RFU WNT11 (11732464_a_at) / Fold change /veh WNT11 (11732464_a_at) / RFU C10orf10 (11716521_a_at) / Fold change /veh C10orf10 (11716521_a_at) / RFU C5orf56 (11738089_at) / Fold change /veh C5orf56 (11738089_at) / RFU CYB561 (11721691_x_at) / Fold change /veh CYB561 (11721691_x_at) / RFU ANKRD19P (11752326_a_at) / Fold change /veh ANKRD19P (11752326_a_at) / RFU OR2T12 /// OR2T33 /// OR2T8 (11738714_s_at) / Fold change /veh OR2T12 /// OR2T33 /// OR2T8 (11738714_s_at) / RFU VCAN (11748164_a_at) / Fold change /veh VCAN (11748164_a_at) / RFU JSRP1 (11732532_at) / Fold change /veh JSRP1 (11732532_at) / RFU KRTAP10-11 (11738290_x_at) / Fold change /veh KRTAP10-11 (11738290_x_at) / RFU MYO3A (11730013_a_at) / Fold change /veh MYO3A (11730013_a_at) / RFU EBF3 (11725865_a_at) / Fold change /veh EBF3 (11725865_a_at) / RFU CAMK2N1 (11719241_x_at) / Fold change /veh CAMK2N1 (11719241_x_at) / RFU C5orf56 (11738088_a_at) / Fold change /veh C5orf56 (11738088_a_at) / RFU OLFML3 (11715873_a_at) / Fold change /veh OLFML3 (11715873_a_at) / RFU LOC100653217 /// NTM (11731650_a_at) / Fold change /veh LOC100653217 /// NTM (11731650_a_at) / RFU MAPK11 (11762145_a_at) / Fold change /veh MAPK11 (11762145_a_at) / RFU FIZ1 (11724087_x_at) / Fold change /veh FIZ1 (11724087_x_at) / RFU OASL (11726364_x_at) / Fold change /veh OASL (11726364_x_at) / RFU SOX15 (11748057_x_at) / Fold change /veh SOX15 (11748057_x_at) / RFU CD79A (11719716_a_at) / Fold change /veh CD79A (11719716_a_at) / RFU HIST1H1D (11736915_at) / Fold change /veh HIST1H1D (11736915_at) / RFU CASKIN2 (11723855_a_at) / Fold change /veh CASKIN2 (11723855_a_at) / RFU LOC730098 (11760151_x_at) / Fold change /veh LOC730098 (11760151_x_at) / RFU OR4N2 (11742367_at) / Fold change /veh OR4N2 (11742367_at) / RFU PRRT2 (11749266_a_at) / Fold change /veh PRRT2 (11749266_a_at) / RFU SNX32 (11753110_a_at) / Fold change /veh SNX32 (11753110_a_at) / RFU CDHR5 (11726645_a_at) / Fold change /veh CDHR5 (11726645_a_at) / RFU RCAN1 (11760418_a_at) / Fold change /veh RCAN1 (11760418_a_at) / RFU FAM167A (11723789_a_at) / Fold change /veh FAM167A (11723789_a_at) / RFU FAM26E (11764081_at) / Fold change /veh FAM26E (11764081_at) / RFU ISYNA1 (11749810_s_at) / Fold change /veh ISYNA1 (11749810_s_at) / RFU ACY1 (11761880_at) / Fold change /veh ACY1 (11761880_at) / RFU 11764098_at / Fold change /veh 11764098_at / RFU SAMD14 (11745864_x_at) / Fold change /veh SAMD14 (11745864_x_at) / RFU NPB (11741838_a_at) / Fold change /veh NPB (11741838_a_at) / RFU TMPRSS6 (11731388_a_at) / Fold change /veh TMPRSS6 (11731388_a_at) / RFU KRTAP10-2 (11738614_at) / Fold change /veh KRTAP10-2 (11738614_at) / RFU ARHGAP8 /// PRR5-ARHGAP8 (11727945_x_at) / Fold change /veh ARHGAP8 /// PRR5-ARHGAP8 (11727945_x_at) / RFU KRTAP5-7 /// NADSYN1 (11734609_at) / Fold change /veh KRTAP5-7 /// NADSYN1 (11734609_at) / RFU RASL12 (11751679_a_at) / Fold change /veh RASL12 (11751679_a_at) / RFU CDKN2B (11736163_a_at) / Fold change /veh CDKN2B (11736163_a_at) / RFU PRF1 (11729649_at) / Fold change /veh PRF1 (11729649_at) / RFU, ZNF638 /// ZNF638-IT1 / Fold change vs veh, ZNF638 /// ZNF638-IT1 / RFU, PANK3 / Fold change vs veh, PANK3 / RFU, SH3YL1 / Fold change vs veh, SH3YL1 / RFU, ZEB2 / Fold change vs veh, ZEB2 / RFU, NRIP1 / Fold change vs veh, NRIP1 / RFU, PTTG1IP / Fold change vs veh, PTTG1IP / RFU, CAPN2 / Fold change vs veh, CAPN2 / RFU, MED14 / Fold change vs veh, MED14 / RFU, SNORA58 / Fold change vs veh, SNORA58 / RFU, C1orf63 / Fold change vs veh, C1orf63 / RFU, LRRFIP1 / Fold change vs veh, LRRFIP1 / RFU, NDUFAF7 / Fold change vs veh, NDUFAF7 / RFU, SLC12A2 / Fold change vs veh, SLC12A2 / RFU, IBTK / Fold change vs veh, IBTK / RFU, ESF1 / Fold change vs veh, ESF1 / Fold change vs veh, TMEM50B / RFU, TAOK1 / Fold change vs veh, TAOK1 / RFU, ACBD3 / Fold change vs veh, ACBD3 / RFU, TMA16 / Fold change vs veh, TMA16 / RFU, RWDD3 / Fold change vs veh, RWDD3 / RFU, BCAT1 / Fold change vs veh, BCAT1 / RFU, EDEM3 / Fold change vs veh, EDEM3 / RFU, TMEM33 / Fold change vs veh, TMEM33 / RFU, WDR75 / Fold change vs veh, WDR75 / RFU, AHCTF1 / Fold change vs veh, AHCTF1 / RFU, TFRC / Fold change vs veh, TFRC / RFU, ZDHHC17 / Fold change vs veh, ZDHHC17 / RFU, NOM1 / Fold change vs veh, NOM1 / RFU, ARL8B / Fold change vs veh, ARL8B / RFU, ZBTB11 / Fold change vs veh, ZBTB11 / RFU, TAMM41 / Fold change vs veh, TAMM41 / RFU, KIAA1704 /// LOC100996395 / Fold change vs veh, KIAA1704 /// LOC100996395 / RFU, ING1 / Fold change vs veh, ING1 / RFU, TRMT61B / Fold change vs veh, TRMT61B / RFU, FUBP3 / Fold change vs veh, FUBP3 / RFU, TP53 / Fold change vs veh, TP53 / RFU, TNKS2 / Fold change vs veh, TNKS2 / RFU, ZFP14 / Fold change vs veh, ZFP14 / RFU, ACTR2 / Fold change vs veh, ACTR2 / RFU, PPP3R1 / Fold change vs veh, PPP3R1 / RFU, PIK3R1 / Fold change vs veh, PIK3R1 / RFU, HNRNPA1 / Fold change vs veh, HNRNPA1 / RFU, RNF170 / Fold change vs veh, RNF170 / RFU, ZNF28 / Fold change vs veh, ZNF28 / RFU, RNGTT / Fold change vs veh, RNGTT / RFU, OGT / Fold change vs veh, OGT / RFU, BRD1 / Fold change vs veh, BRD1 / RFU, MARS / Fold change vs veh, MARS / RFU, ZNF655 / Fold change vs veh, ZNF655 / RFU, FAHD1 / Fold change vs veh, FAHD1 / RFU, BDP1 / Fold change vs veh, BDP1 / RFU, LRRCC1 / Fold change vs veh, LRRCC1 / RFU, ARID1A / Fold change vs veh, ARID1A / RFU, ZNF146 / Fold change vs veh, ZNF146 / RFU, ZNF330 / Fold change vs veh, ZNF330 / RFU, GPN3 / Fold change vs veh, GPN3 / RFU, C9orf123 / Fold change vs veh, C9orf123 / RFU, N4BP2L2 / Fold change vs veh, N4BP2L2 / RFU, ARFIP1 / Fold change vs veh, ARFIP1 / RFU, FAM179B / Fold change vs veh, FAM179B / RFU, BCL10 / Fold change vs veh, BCL10 / RFU, UHRF1BP1L / Fold change vs veh, UHRF1BP1L / RFU, BET1 / Fold change vs veh, BET1 / RFU, CNOT2 / Fold change vs veh, CNOT2 / RFU, ZNF268 / Fold change vs veh, ZNF268 / Fold change vs veh, ZNF507 / RFU, DGCR2 / Fold change vs veh, DGCR2 / RFU, WDSUB1 / Fold change vs veh, WDSUB1 / Fold change vs veh, HSP90B1 /// MIR3652 / RFU, ADSS / Fold change vs veh, ADSS / RFU, GK / Fold change vs veh, GK / RFU, ZNF148 / Fold change vs veh, ZNF148 / RFU, TAF9 / Fold change vs veh, TAF9 / RFU, SLC1A5 / Fold change vs veh, SLC1A5 / RFU, SLMO2 / Fold change vs veh, SLMO2 / RFU, ABCC4 / Fold change vs veh, ABCC4 / RFU, LOC101060439 /// RAP1B / Fold change vs veh, LOC101060439 /// RAP1B / RFU, RFX7 / Fold change vs veh, RFX7 / RFU, GTPBP10 / Fold change vs veh, GTPBP10 / RFU, CNEP1R1 / Fold change vs veh, CNEP1R1 / RFU, BIVM-ERCC5 /// ERCC5 / Fold change vs veh, BIVM-ERCC5 /// ERCC5 / RFU, ILF3 / Fold change vs veh, ILF3 / RFU 11762660_at / Fold change /veh 11762660_at / RFU VCAN (11757783_s_at) / Fold change /veh VCAN (11757783_s_at) / RFU DDX43 (11728927_at) / Fold change /veh DDX43 (11728927_at) / RFU KRT8 (11758188_x_at) / Fold change /veh KRT8 (11758188_x_at) / RFU NKD1 (11759106_at) / Fold change /veh NKD1 (11759106_at) / RFU SRD5A1 (11742802_a_at) / Fold change /veh SRD5A1 (11742802_a_at) / RFU TPSAB1 /// TPSB2 (11721975_s_at) / Fold change /veh TPSAB1 /// TPSB2 (11721975_s_at) / RFU GSTM3 (11746129_a_at) / Fold change /veh GSTM3 (11746129_a_at) / RFU IL23R (11737362_x_at) / Fold change /veh IL23R (11737362_x_at) / RFU TMEM51 (11727254_a_at) / Fold change /veh TMEM51 (11727254_a_at) / RFU PIWIL2 (11732686_x_at) / Fold change /veh PIWIL2 (11732686_x_at) / RFU ORM1 (11744905_x_at) / Fold change /veh ORM1 (11744905_x_at) / RFU CCDC152 (11743942_at) / Fold change /veh CCDC152 (11743942_at) / RFU ECM1 (11717891_a_at) / Fold change /veh ECM1 (11717891_a_at) / RFU IL23R (11748794_a_at) / Fold change /veh IL23R (11748794_a_at) / RFU TNFAIP8L3 (11732012_x_at) / Fold change /veh TNFAIP8L3 (11732012_x_at) / RFU MBOAT4 (11741988_at) / Fold change /veh MBOAT4 (11741988_at) / RFU 11764193_at / Fold change /veh 11764193_at / RFU TMEM53 (11763286_at) / Fold change /veh TMEM53 (11763286_at) / RFU MAGEB2 (11727129_at) / Fold change /veh MAGEB2 (11727129_at) / RFU TMEM200A (11744735_a_at) / Fold change /veh TMEM200A (11744735_a_at) / RFU CCDC152 (11751479_a_at) / Fold change /veh CCDC152 (11751479_a_at) / RFU FAM211A (11726209_a_at) / Fold change /veh FAM211A (11726209_a_at) / RFU RGS16 (11746705_a_at) / Fold change /veh RGS16 (11746705_a_at) / RFU VCAN (11755009_s_at) / Fold change /veh VCAN (11755009_s_at) / RFU RHOB (11743442_s_at) / Fold change /veh RHOB (11743442_s_at) / RFU RGS16 (11720943_a_at) / Fold change /veh RGS16 (11720943_a_at) / RFU RGS16 (11720944_at) / Fold change /veh RGS16 (11720944_at) / RFU, VPS4B / Fold change vs veh, VPS4B / RFU, CREB1 / Fold change vs veh, CREB1 / RFU, DNAJC13 / Fold change vs veh, DNAJC13 / RFU, GNAQ / Fold change vs veh, GNAQ / RFU, CDK5R1 / Fold change vs veh, CDK5R1 / RFU, ZRANB3 / Fold change vs veh, ZRANB3 / RFU, CUL4A / Fold change vs veh, CUL4A / RFU, CCNY / Fold change vs veh, CCNY / RFU, UFL1 / Fold change vs veh, UFL1 / RFU, COG3 / Fold change vs veh, COG3 / RFU, DIAPH2 / Fold change vs veh, DIAPH2 / RFU, SKA2 / Fold change vs veh, SKA2 / RFU, AFF3 / Fold change vs veh, AFF3 / RFU, LMF1 / Fold change vs veh, LMF1 / RFU, IPO11 / Fold change vs veh, IPO11 / RFU, DFFB / Fold change vs veh, DFFB / RFU, FOXP1 / Fold change vs veh, FOXP1 / RFU, CARD8 / Fold change vs veh, CARD8 / RFU, STRN3 / Fold change vs veh, STRN3 / RFU, ADK / Fold change vs veh, ADK / RFU, RASSF2 / Fold change vs veh, RASSF2 / RFU, WIPF1 / Fold change vs veh, WIPF1 / RFU, LARP1B / Fold change vs veh, LARP1B / RFU, RASA1 / Fold change vs veh, RASA1 / RFU, RB1 / Fold change vs veh, RB1 / RFU, PPFIA1 / Fold change vs veh, PPFIA1 / RFU, MAT2A / Fold change vs veh, MAT2A / RFU, CCT5 / Fold change vs veh, CCT5 / RFU, WDR92 / Fold change vs veh, WDR92 / RFU, CUX1 / Fold change vs veh, CUX1 / RFU, TTC7A / Fold change vs veh, TTC7A / RFU, TMEM135 / Fold change vs veh, TMEM135 / RFU, DEPTOR / Fold change vs veh, DEPTOR / RFU, CPM / Fold change vs veh, CPM / RFU, DNAJB6 / Fold change vs veh, DNAJB6 / RFU, CACNA2D3 / Fold change vs veh, CACNA2D3 / RFU, DTX4 / Fold change vs veh, DTX4 / RFU, TFCP2 / Fold change vs veh, TFCP2 / RFU, GMCL1 /// GMCL1P1 / Fold change vs veh, GMCL1 /// GMCL1P1 / RFU, AEBP2 / Fold change vs veh, AEBP2 / RFU, SNHG1 /// SNORD22 /// SNORD25 /// SNORD26 /// SNORD27 /// SNORD28 /// SNORD29 /// SNORD31 / Fold change vs veh, SNHG1 /// SNORD22 /// SNORD25 /// SNORD26 /// SNORD27 /// SNORD28 /// SNORD29 /// SNORD31 / Fold change (Aza/veh), C12orf56 (ProbeSet 11735607_a_at) / Fold change (ACY-1035/veh), C12orf56 (ProbeSet 11735607_a_at) / Fold change (Aza/veh), FGFR1OP (ProbeSet 11751329_s_at) / Fold change (ACY-1035/veh), FGFR1OP (ProbeSet 11751329_s_at) / Fold change (Aza/veh), VPS36 (ProbeSet 11739960_a_at) / Fold change (ACY-1035/veh), VPS36 (ProbeSet 11739960_a_at) / RFU SYPL1 (11715823_x_at) / Fold change /veh SYPL1 (11715823_x_at) / RFU IGFBP7 (11715501_s_at) / Fold change /veh IGFBP7 (11715501_s_at) / RFU REEP3 (11722064_at) / Fold change /veh REEP3 (11722064_at) / RFU IGLL1 (11728026_x_at) / Fold change /veh IGLL1 (11728026_x_at): dose or concentration left out as unconfirmed
Details: MV-4-11 cells, 48 hours

In the case of `Nc1ncn([C@@H]2O[C@H](CO)[C@@H](O)[C@H]2O)c(=O)n1` [azacitidine], the “Fold change /veh PLEKHG5 (11737974_s_at)” value is reported as 1.17.

Source: article PMC5218480 (PLoS ONE, 2017)
